Reference: PMC12452389, “Arginine-Derived Cationic Surfactants Containing Phenylalanine and Tryptophan: Evaluation of Antifungal Activity, Biofilm Eradication, Cytotoxicity, and Ecotoxicity” (Journal of Xenobiotics, 2025)
In brackets after ≈: the same amount, converted by molar mass. Several values for one entry are separate records, joined by “and”; a condition that tells them apart may be missing. Equal entries are not always repeated. Structures can show the parent of a compound that is named as a salt. Where two headings read alike, the source gives them in different places. Peptide text beside a SMILES is read from it. * marks the point of attachment. Lauroyl = CCCCCCCCCCCC(=O)*

Columns and labels:
[1] = Surface tension, pendant drop tensiometer (cmc, γc); assay type: physicochemical; conditions: for cmc: from surface tension
Experimental: Surface tension was measured using a custom-built pendant drop tensiometer, as described in detail in reference. Briefly, a droplet of surfactant solution is formed at the tip of a straight-cut Teflon tube. The image of the droplet is captured using a webcam, and its shape is analyzed by fitting the droplet profile to the Laplace–Young equation [14], To minimize evaporation, all measurements were conducted in a saturated humid atmosphere. The use of this technique is especially well-suited for cationic surfactants because it helps to mitigate complications related to surface adsorption. Critical micelle concentration values (cmc) were determined by finding the intersection of the linear fits before and after the break in the curves.

[2] = tested on: Candida albicans ATCC 90028; assay: MIC broth microdilution; assay type: cell-based; conditions: C. albicans; for MIC: Candida albicans, ATCC90028, read-out: MIC
Experimental: (§1) The antimicrobial activity of these compounds was assessed against selected yeast and bacterial strains: Candida albicans ATCC 90028 (CA9), Candida rugosa ATCC 10571 (CR), Candida glabrata ATCC 66032 (CG), Candida parapsilosis ATCC 22019 (CP), Candida tropicalis ATCC 7349 (CT), Candida auris ATCC 21092 (CA), and Cyberlindnera jadinii ATCC 60459. Frozen yeast stocks were plated on Sabouraud agar (SBA) and incubated at 30 °C for 24 h. Three to four colonies from each strain were then suspended in RPMI 1640 (Roswell Park Memorial Institute medium, Sigma- Aldrich, Merck, Darmstadt, Germany) to prepare bacterial dispersions of ~1.5 × 10^6 CFU/mL.
(§2) A broth microdilution assay was used to calculate MIC values. Twofold serially diluted compounds in RPMI 1640 medium (from 256 to 2 μg/mL), were dispensed (100 μL per well) into a 96-well plate. Then, 100 μL of a yeast starter culture was added to each well to reach a final inoculum of 7.5 × 10^5 CFU/mL. Wells containing only nutrient broth without the tested surfactant served as growth controls. Microbial growth was assessed by turbidity, which reflects increases in biomass and cell count. […] To confirm the obtained MICs, 20 μL of 0.015% (w/v) resazurin was dispensed to each well and incubated for 3 h at 30 °C. Metabolic activity was evidenced by a color change from blue to pink, thereby confirming the MIC value.

Candida auris ATCC 21092 = assay: MIC broth microdilution; assay type: cell-based; conditions: C. auris; for MIC: Candidozyma auris, ATCC21092, read-out: MIC
Experimental: as §1, §2

[3] = tested on: Candida glabrata ATCC 66032; assay: MIC broth microdilution; assay type: cell-based
Experimental: as §1, §2

[4] = tested on: Candida parapsilosis ATCC 22019; assay: MIC broth microdilution; assay type: cell-based; conditions: C. parapsilosis; for MIC: Lodderomyces parapsilosis, ATCC22019, read-out: MIC
Experimental: as §1, §2

[5] = tested on: Candida rugosa ATCC 10571; assay: MIC broth microdilution; assay type: cell-based; conditions: C. rugosa; for MIC: Diutina rugosa, ATCC10571, read-out: MIC
Experimental: as §1, §2

[6] = tested on: Candida tropicalis ATCC 7349; assay: MIC broth microdilution; assay type: cell-based; conditions: C. tropicalis; for MIC: Candida tropicalis, ATCC7349, read-out: MIC
Experimental: as §1, §2

[7] = tested on: Cyberlindnera jadinii ATCC 60459 (C. jardinii); assay: MIC broth microdilution; assay type: cell-based; conditions: for Selectivity Index (HC50/MIC): C. jardini; for MIC: Williopsis jadinii
Experimental: as §1, §2

erythrocytes = assay: Hemolytic activity assay; assay type: cell-based; conditions: rabbit erythrocytes
Experimental: Fresh rabbit blood was obtained from the Animal Facility of the CID-CSIC (Research and Development Center, Spanish National Research Council, Barcelona, Spain). Sample collection was conducted in strict compliance with the bioethical guidelines established under Spanish legislation. Erythrocytes were isolated by centrifugation (3000 rpm/10 min). The supernatant was discarded, and the erythrocytes were washed three times with PBS (phosphate-buffered saline, pH 7.4) and then resuspended in PBS at a concentration of 8 × 10^9 cells/mL. Subsequently, varying volumes of a concentrated surfactant solution were added to Eppendorf tubes containing 25 μL of erythrocyte suspension. PBS was then added to bring the total volume to 1 mL. The samples were gently shaken for 10 min at room temperature and centrifuged at 10,000 rpm for 5 min. Hemolysis was evaluated by measuring the absorbance of the supernatant at 540 nm and comparing it to that of a 100% hemolysis control (erythrocytes treated with distilled water). The HC50, defined as the surfactant concentration that induces 50% hemolysis, was determined from the concentration–response curves: % hemolysis= Abstest compound/AbsBasal haemolytic activity ×100

Daphnia magna = assay: Acute toxicity, immobilization test; assay type: in vivo; conditions: Daphnia magna, 48 h
Experimental: Aquatic toxicity evaluation was performed using Daphnia magna following established protocols. This bioassay method employs laboratory-cultured freshwater microcrustaceans to evaluate surfactant toxicity in aquatic environments. Test organisms were utilized during their initial 24 h life stage to ensure consistency. The endpoint measurement focused on mobility impairment, specifically the loss of swimming capability after gentle stimulation lasting 15 s. Testing conditions included controlled water chemistry parameters: pH maintained at 8.0, calcium-to-magnesium ratio of 4:1, and total hardness of 250 mg/L as CaCO3. All experiments were conducted under dark conditions at 20 °C. The experimental design incorporated ten test concentrations for each surfactant compound, distributed in geometric progression. Each concentration level included 20 Daphnia specimens distributed across four replicate groups of five organisms each. Mobility assessment occurred at 48 h post-exposure, with immobilization percentages plotted against concentration using probability–logarithmic scaling.

Vibrio fischeri = assay: Luminescence reduction test; assay type: cell-based; conditions: Aliivibrio fischeri, 0.25 h; Vibrio fischeri bioluminescence, 15 min of exposure; 95% confidence intervals in parentheses
Experimental: Ecotoxicological assessment of cationic surfactants was conducted using the Vibrio fischeri luminescent bioassay. This method relies on the measurement of decreased bioluminescent output from marine bacteria following contact with potentially toxic substances. Regression analysis was used to determine the concentration of the compound that caused a 50% reduction (EC50) in the amount of light emitted by the bacteria. The stated toxicity statistics given are based on the bacteria being exposed to the ionic liquid solution for 15 min at 15 °C.

[8] = design: method as in PMID 36559096; conditions: conductivity values; cited from earlier work
[9] = Nakaseomyces glabratus, ATCC66032, 24 h, C. glabrata, RPMI 1640, 24 h, 30 °C, read-out: MIC
[10] = Nakaseomyces glabratus, ATCC66032, C. glabrata, value in parentheses, read-out: MIC

Structure (SMILES) | γc (surface tension at the cmc) [1] | cmc [1] | Selectivity Index (HC50/MIC) ([2]; Table S1) | MIC ([2]; RPMI 1640, 24 h, 30 °C) | MIC ([2]; value in parentheses) | Selectivity Index (HC50/MIC) (Candida auris ATCC 21092; Table S1) | MIC (Candida auris ATCC 21092; RPMI 1640, 24 h, 30 °C) | MIC (Candida auris ATCC 21092; value in parentheses) | Selectivity Index (HC50/MIC) ([3]; C. glabrata, Table S1) | MIC [3, 9] | MIC [3, 10] | MIC ([4]; RPMI 1640, 24 h, 30 °C) | MIC ([4]; value in parentheses) | MIC ([5]; RPMI 1640, 24 h, 30 °C) | MIC ([5]; value in parentheses) | MIC ([6]; RPMI 1640, 24 h, 30 °C) | MIC ([6]; value in parentheses) | HC50 (erythrocytes; 10 min, room temperature) | HC50 (erythrocytes; value in parentheses) | cmc Cond [8] | other results
CCCCCCCCCCCCNC(=O)C(CCCNC(=N)N)NC(=O)C(N)Cc1c[nH]c2ccccc12 (stereo not drawn) [TANHC12] | 28.7 ± 3.3 mNm^−1 | 2.5 mM | 0.25 | 64 mg/L | 108 µM | 0.12 | 128 mg/L | 216 µM | 0.12 | 128 mg/L | 108 µM | 32 mg/L | 54 µM | 4 mg/L | 7 µM | 32 mg/L | 54 µM | 16 ± 0.3 µg/mL | 27 ± 0.6 µM | 0.6 mM | Selectivity Index (HC50/MIC) ([2]; Table S2): 0.25; Selectivity Index (HC50/MIC) (Candida auris ATCC 21092; Table S2): 0.1; MIC ([3]; C. glabrata, RPMI 1640, 24 h, 30 °C): 64 mg/L; Selectivity Index (HC50/MIC) ([3]; C. glabrata, Table S2): 0.25; MIC ([3]; Nakaseomyces glabratus, ATCC66032, 24 h, C. glabrata, value in parentheses, read-out: MIC): 216 µM; Selectivity Index (HC50/MIC) ([4]; Table S1): 0.5; Selectivity Index (HC50/MIC) ([4]; Table S2): 0.5; Selectivity Index (HC50/MIC) ([5]; Table S1): 3.8; Selectivity Index (HC50/MIC) ([5]; Table S2): 4; Selectivity Index (HC50/MIC) ([6]; Table S1): 0.5; Selectivity Index (HC50/MIC) ([6]; Table S2): 0.5; Selectivity Index (HC50/MIC) ([7]; Table S1): 0.25; Selectivity Index (HC50/MIC) ([7]; Table S2): 0.25; MIC ([7]; ATCC60459): 108 µM; MIC ([7]; ATCC60459, 24 h): 64 mg/L; EC50 (Daphnia magna): 3 mg/L (≈ 5.68 µM); EC50 (Vibrio fischeri): 1.9 mg/L (≈ 3.6 µM)
CCCCCCCCCCCCCCNC(=O)C(CCCNC(=N)N)NC(=O)C(N)Cc1ccccc1 (stereo not drawn) [PANHC14] | 28.7 ± 1.5 mNm^−1 | 0.35 mM |  | 16 mg/L | 27 µM |  | 16 mg/L | 27 µM |  | 8 mg/L | 14 µM | 8 mg/L | 14 µM | 16 mg/L | 27 µM | 8 mg/L | 14 µM | 20 ± 0.5 µg/mL | 34 ± 0.8 µM | 0.7 mM | Selectivity Index (HC50/MIC) ([2]; Table S2): 1.2; Selectivity Index (HC50/MIC) (Candida auris ATCC 21092; Table S2): 1.2; Selectivity Index (HC50/MIC) ([3]; C. glabrata, Table S2): 2.4; Selectivity Index (HC50/MIC) ([4]; Table S2): 2.4; Selectivity Index (HC50/MIC) ([5]; Table S2): 1.2; Selectivity Index (HC50/MIC) ([6]; Table S2): 2.4; Selectivity Index (HC50/MIC) ([7]; Table S2): 1.2; MIC ([7]; ATCC60459, C. jardinii, RPMI 1640, 24 h, 30 °C, read-out: MIC): 16 mg/L; MIC ([7]; ATCC60459, C. jardinii, value in parentheses, read-out: MIC): 27 µM; EC50 (Daphnia magna): 0.71 mg/L (≈ 1.37 µM); EC50 (Vibrio fischeri): 1.8 mg/L (≈ 3.48 µM)
CCCCCCCCCCCC(=O)NC(CCCNC(=N)N)C(=O)OC (stereo not drawn) [C12AM] | 29.5 ± 1.5 mNm^−1 | 1.7 mM | 3.4 | 32 mg/L | 78 µM | 0.9 | 128 mg/L | 312 µM | 7 | 16 mg/L | 39 µM | 16 mg/L | 39 µM | 64 mg/L | 156 µM | 8 mg/L | 19 µM | 109 ± 0.6 µg/mL | 270 ± 1.7 µM | 6 mM | Selectivity Index (HC50/MIC) ([4]; Table S1): 7; Selectivity Index (HC50/MIC) ([5]; Table S1): 1.7; Selectivity Index (HC50/MIC) ([6]; Table S1): 14; Selectivity Index (HC50/MIC) ([7]; Table S1): 1.7; MIC ([7]; ATCC60459): 156 µM; MIC ([7]; ATCC60459, 24 h): 64 mg/L; EC50 (Daphnia magna): 4.4 mg/L (≈ 11.9 µM); EC50 (Vibrio fischeri): 1.9 mg/L (≈ 5.13 µM)
CCCCCCCCCCCCNC(=O)C(N)Cc1ccccc1 (stereo not drawn) [PNHC12, phenylalanine dodecyl amide hydrochloride] | 26.6 ± 0.8 mNm^−1 | 1.2 mM | 2.5 | 8 mg/L | 22 µM | 0.6 | 32 mg/L | 88 µM | 0.6 | 32 mg/L | 88 µM | 32 mg/L | 88 µM | 32 mg/L | 88 µM | 32 mg/L | 88 µM | 20 ± 0.6 µg/mL | 55 ± 1.7 µM | 1.2 mM | Selectivity Index (HC50/MIC) ([4]; Table S1): 0.6; Selectivity Index (HC50/MIC) ([5]; Table S1): 0.6; Selectivity Index (HC50/MIC) ([6]; Table S1): 0.6; Selectivity Index (HC50/MIC) ([7]; Table S1): 0.6; MIC ([7]; ATCC60459, 24 h): 32 µg/mL and 88 µM
CCCCCCCCCCCC(=O)NC(Cc1ccccc1)C(=O)NC(CCCNC(=N)N)C(=O)OC (stereo not drawn) [C12PAM] (Lauroyl-Phe-Arg-OMe; configuration not given here) | 29.5 ± 2.7 mNm^−1 | 0.7 mM | 1.4 | 16 mg/L | 29 µM | 0.7 | 32 mg/L | 58 µM | 1.4 | 16 mg/L | 29 µM | 16 mg/L | 29 µM | 4 mg/L | 7 µM | 16 mg/L | 29 µM | 23 ± 0.8 µg/mL | 42 ± 1.5 µM | 1.2 mM | Selectivity Index (HC50/MIC) ([4]; Table S1): 1.4; Selectivity Index (HC50/MIC) ([5]; Table S1): 6; Selectivity Index (HC50/MIC) ([6]; Table S1): 1.4; Selectivity Index (HC50/MIC) ([7]; Table S1): 0.4; MIC ([7]; ATCC60459): 116 µM; MIC ([7]; ATCC60459, 24 h): 64 mg/L
